# Test results as given in US6368788B1 (priority 1987, dated 2002).
# Where two headings read alike, the source gives them in different places. Marks after values point to notes of the source that are not given here.
# Experiments:
# [1] = Thoracic cavity tumors: focal radiation therapy then L-Glu-L-Trp, clinical complications; assay type: in vivo, human; conditions: for Complications: Cardio-Pulm. / Complications: Mortality / Complications: Septic / Complications: Total: 5 × im 100 μg
# Description: Surgical removal of thoracic tumors was followed in 38 patients by focal radiation therapy and then a course of L-Glu-L-Trp therapy consisting of 5 daily im injections of 100 μg L-Glu-L-Trp each. Only radiation therapy (and supportive antibiotic therapy) was administered as a control to 56 patients.
# influenza [2] = test: Influenza prophylaxis: incidence of acute respiratory diseases and influenza illness; assay type: in vivo, human
# Description: A group of 452 persons were treated with daily dosages of 100 μg of L-Glu-L-Trp administered im on each of 5-10 consecutive days. A control group consisted of 250 untreated persons. The incidence of diagnosed respiratory diseases and influenza were recorded for both groups over the next four months.
# [3] = Influenza symptoms and sinusitis (Protocol F); assay type: in vivo, human
# Description: Summary Overview: Fifty-one patients (51) were treated daily for 3-10 days with either 100 μg L-Glu-L-Trp administered im, or 1 μg/kg administered intranasally. A control group of 24 similar patients remained untreated.
# influenza [4] = test: Volunteers experimentally infected with influenza (Protocol I); conditions: human, in vivo
# Description: Thirty-four similarly infected volunteers (34) served as untreated controls. […] The hematological and immunological indices examined immediately following the period of treatment were restored to within the normal range.
# [5] = Drug allergies to antibiotics; set-up: species or system human; conditions: in vivo
# Description: L-Glu-L-Trp was administered to 76 patients having clinical histones of allergies to antibiotics, during the period of administration of the antibiotic. A control group consisted of 43 patients with similar antibiotic drug allergies. L-Glu-L-Trp was administered im on a daily basis for 5-10 days at a dosage of 100 μg, or alternatively, intranasally at a dosage of 1 μg/kg over the same 5-10 day period. […] Allergic reactions were pronounced in the control group with signs of drug intolerance.
# Rauscher MuLV = test: Anti-viral response to Rauscher MuLV; assay type: in vivo, mice; conditions: 50 μg/kg
# Description: Innate mechanisms of anti-viral immunity are important to survival of the host. The Rauscher murine leukemia virus (MuLV) is an example of a highly virulent animal retrovirus infection, first isolated and characterized by Dr. Rauscher from BALB/c mouse tissues in 1962. […] The virus employed in present GLP/blinded study was a murine leukemia complex known to induce progressive erythroleukemia in mice (i.e., Rauscher MuLV and replication-defective Rauscher spleen focus-forming virus). Disease manifested within about 6 days with death by about 50 days. Measurements of splenomegaly, blood reverse transcriptase, virus plaque assays (i.e., XC-plaque assay for viremia using SC-1 host cells) and serum anti-viral antibody titers were used to assess infection. Spleens achieved about 2.0 grams in weight within 21 days of infection, as compared with a normal spleen weights in an uninfected animals of about 0.1 gram.
# Mice were inoculated with Rauscher MuLV complex (0.1 ml/7.8×10^4 PFU/mL) on day 0 and sacrificed on day 21. Test groups were comprised of 10 mice and control groups 6 mice. Control articles included saline and AZT (in drinking water at about 1.25 mg/mouse/day≈63 mg/kg/day/mouse). […] A non-infected group of mice was also sacrificed on day 21 to provide normal control values.
# In EXAMPLE 38, SC-1 cells were originally derived from murine embryos, and XC cells (a rat tumor cell line induced by Rous Sarcoma Virus) were obtained from the ATCC in Rockville, Md.
# C. albicans = assay type: in vivo, mice; conditions: PDR
# Pneumocystis carinii = Pneumocystis carinii lung infection in cortisone-immunocompromised rats; assay type: in vivo; conditions: for Lung (bacteria): mean ± S.E., magnification 400X; for Lymphocytes / Neutrophils / Total Leukocytes / Lymphocytes (% Normal) / Neutrophils (% normal) / Total Leukocytes (% normal): peripheral blood at 79 days; for Lymphocytes (% Normal) / Neutrophils (% normal) / Total Leukocytes (% normal): % of day 0
# Description: Corticosteroids were administered to rats to induce an immunocompromised state in which an opportunistic infection with Pneumocystis carinii could be established. The immunocompromised state was induced by administering cortisone acetate im twice weekly at a dose of 25 mg/kg over the entire 12 week course of the study. Pneumocystis carinii lung infection was initiated by intranasal instillation on day 0. Prophylactic tetracycline was administered po in the drinking water ([…]), and peripheral blood differential counts were monitored over the next 12 weeks. In control (untreated) Pneumocystis-infected animals, differential counts, body weight, and lymphocyte counts began dropping at about 30-39 days and lung infection was evident histologically by about day 60-69. At day 80, tetracycline treatment was discontinued in all groups. By day 80 in this animal model, mean body weight of the animals had dropped by approximately 30% from the values recorded on day 0. Groups were comprised of 15 rats each.
# L-Glu-L-Trp treatments were administered according to the following protocol: 10 consecutive daily im injections of 10 μg/kg or 100 μg/kg of L-Glu-L-Trp on days 0 through 9, 30 through 39, and 60 through 69 of the study. Differential cell counts in peripheral blood (TABLE 80) and lung histology (i.e., with enumeration of the number of P. carinii/10 microscopic fields—at 400× magnification) were used to monitor the course of the opportunistic infection.
# [6] = with antibiotic therapy
substance,measurement,setting,value
L-Glu-L-Trp,Complications: Cardio-Pulm.,"[1]; Esophagus, 22 patients",1
same,Complications: Mortality,"[1]; Esophagus, 22 patients",0
same,Complications: Septic,"[1]; Esophagus, 22 patients",1
same,Complications: Total,"[1]; Esophagus, 22 patients",2
same,Complications: Cardio-Pulm.,"[1]; Lung, 16 patients",0
same,Complications: Mortality,"[1]; Lung, 16 patients",0
same,Complications: Septic,"[1]; Lung, 16 patients",0
same,Complications: Total,"[1]; Lung, 16 patients",1
same,Clinical outcome,"[1]; human, in vivo",decreased the total number of complications
same,Average term of hospitalization,influenza [2]; L-Glu-L-Trp group,6.2 days
same,"Incidence of lingering and complicated cases for in-patients, %",influenza [2]; L-Glu-L-Trp group,9.8%
same,"Need for hospitalization, %",influenza [2]; L-Glu-L-Trp group,30.6%
same,Number of cases of temporary disablement per 100 persons/month,influenza [2]; L-Glu-L-Trp group,4.1
same,Number of days of temporary disablement per 100 persons/month,influenza [2]; L-Glu-L-Trp group,26.5
same,"Overall incidence of lingering and complicated cases, %",influenza [2]; L-Glu-L-Trp group,3.9%
same,Pneumonia rate/100 persons/month,influenza [2]; L-Glu-L-Trp group,0.20
same,Sickness rate per 100 persons/month,influenza [2]; L-Glu-L-Trp group,9.8
same,"Average term of hospitalization, Ratio Control/TX",influenza [2]; in vivo,1.4
same,"Cases of temporary disablement, Ratio Control/TX",influenza [2]; in vivo,1.7
same,"Days of temporary disablement, Ratio Control/TX",influenza [2]; in vivo,2.2
same,"Incidence of lingering and complicated cases for in-patients, Ratio Control/TX",influenza [2]; in vivo,2.7
same,"Need for hospitalization, Ratio Control/TX",influenza [2]; in vivo,1.7
same,"Overall incidence of lingering and complicated cases, Ratio Control/TX",influenza [2]; in vivo,3.5
same,"Pneumonia rate, Ratio Control/TX",influenza [2]; in vivo,2.5
same,"Sickness rate, Ratio Control/TX",influenza [2]; in vivo,3.1
same,Clinical outcome,[3]; in vivo,"reduced nasal mucous swelling, normalization of breathing"
same,Decrease of total duration of patient treatment,[3]; vs control group,up to 1.7 fold
same,Clinical outcome,influenza [4],"normalization of fever, reduction in toxic symptoms"
same,Patients in whom development of allergic reactions was prevented,[5],70%
same,Viremia,Rauscher MuLV,significantly decreased viremia
same,Germ Tube (%),C. albicans; 0.1 μg/kg ip,35* %
same,Germ Tube (%),C. albicans; 1 μg/kg ip,34* %
same,Germ Tube (%),C. albicans; 10 μg/kg ip,35* %
same,Germ Tube (%),C. albicans; 100 μg/kg ip,26* %
same,Germ Tube (%),C. albicans; 300 μg/kg ip,37%
same,"Numbers of lung bacteria, % of saline treated control",Pneumocystis carinii; 10 μg/kg,about 33%
same,Lung (bacteria),Pneumocystis carinii; 10 μg/kg im,53 ± 32 P. carinii bacteria per 10 sections
same,"Numbers of lung bacteria, % of saline treated control",Pneumocystis carinii; 100 μg/kg,~43%
same,Lung (bacteria),Pneumocystis carinii; 100 μg/kg im,70 ± 33 P. carinii bacteria per 10 sections
same,"Leukocyte counts, % of normal",Pneumocystis carinii; day 79,45-47%
same,"Lymphocyte counts, % of normal",Pneumocystis carinii; day 79,45%
same,Lymphocytes,Pneumocystis carinii; 10 μg/kg im,4.7 ± 1.2 ×10^6/ml
same,Neutrophils,Pneumocystis carinii; 10 μg/kg im,2.0 ± 0.7 ×10^6/ml
same,Total Leukocytes,Pneumocystis carinii; 10 μg/kg im,8.1 ± 2.3 ×10^6/ml
same,Lymphocytes (% Normal),Pneumocystis carinii; 10 μg/kg im,45%
same,Neutrophils (% normal),Pneumocystis carinii; 10 μg/kg im,41%
same,Total Leukocytes (% normal),Pneumocystis carinii; 10 μg/kg im,47%
same,Lymphocytes,Pneumocystis carinii; 100 μg/kg im,4.7 ± 1.4 ×10^6/ml
same,Neutrophils,Pneumocystis carinii; 100 μg/kg im,1.5 ± 0.5 ×10^6/ml
same,Total Leukocytes,Pneumocystis carinii; 100 μg/kg im,7.8 ± 1.8 ×10^6/ml
same,Lymphocytes (% Normal),Pneumocystis carinii; 100 μg/kg im,45%
same,Neutrophils (% normal),Pneumocystis carinii; 100 μg/kg im,31%
same,Total Leukocytes (% normal),Pneumocystis carinii; 100 μg/kg im,45%
same,Clinical outcome,[6],accelerated healing of chronic and acute ear infections
